Measurements: paper PMC8695447, “Novel Small Molecules Capable of Blocking mtRAS-Signaling Pathway” (Frontiers in Oncology, 2021)

Legend:
Type in all cases: cell-based
U937 (KRAS, NRAS-wt) = assay: Anti-proliferation assay on U937; settings: Homo sapiens, U-937; 72 h treatment; average with SD (n = 3, duplicate)
Description: (§1) Ba/F3-parental, OCI-AML3, U397 cells were purchased from DSMZ. MDA-MB-231, HCT-116, AsPC-1, H358, HT-29, SW480, and DU-145 cells were obtained from KCLB. MDA-MB-468 cells were obtained from ATCC. All cells were maintained in RPMI with 10% FBS and antibiotics. Cells were grown in a humidified 5% CO2 incubator at 37°C. Ba/F3-parental cells were grown in the presence of 10 ng/ml IL-3. NRAS-G12D or NRAS-G12V transformed Ba/F3 cell lines (Ba/F3-NRAS-G12D, and Ba/F3-NRAS-G12V, respectively) were cultured without IL-3, which were established by the procedure described as previously ([30]).
(§2) Approximately 3.0 × 10^3 cells/well were seeded in a 96-well cell culture plate. After stabilization, 1/3 serially diluted compound in DMSO was treated to the cell. […] All GI50 values were obtained in duplicate with three independent assays and averages with standard deviation are presented.

HT-29 (KRAS-Q61L) = assay: Anti-proliferation assay on HT-29; settings: Homo sapiens, HT-29; 72 h treatment; average with SD (n = 3, duplicate)
Description: as §1, §2

[1] = system: phospho-70S6K1, -JNK, -p38 in Ba/F3-NRAS-G12D and OCI-AML cells; assay: Western blot, ACK1 and GCK downstream signaling (phospho-70S6K1, -JNK, -p38); settings: 0.1, 1, 10 μM for 2 h
Description: (§3) Approximately 1 × 10^6 cells per well were seeded in a 6-well cell culture plate. After cell adhesion, each compounds were treated for 2 h with indicated concentration and conducted brief washing twice by ice-cold PBS. Cells were lysed by NP40 buffer (50 mM Tris–HCl pH 7.4, 1% NP40, 2 mM EDTA, 150 mM NaCl) in the presence of protease inhibitor cocktail (Roche, #11873580001) and phosphatase inhibitor cocktail (Roche, #04906837001). Each sample was loaded with same amount of total protein and separated by SDS-PAGE gel. After transferred to nitrocellulose membrane, blocking with 5% skim milk (in TBS/T) was followed. The membrane was incubated 4°C for overnight with uniformly diluted primary antibodies at 1:1,000 (v/v) in TBS/T. The following primary antibodies were used: anti-p-AKT (Cell Signaling, #9271), anti-p-ERK1/2 (Cell Signaling, #4370), anti-PARP (Cell Signaling, #9542), anti-GAPDH (Cell Signaling, #5174), anti-p-70S6K1 (Cell Signaling, #9204), anti-p-JNK(Cell Signaling, #9251), anti-p-p38 (Cell Signaling, #9216), and anti-p-MEK1/2 (Santa Cruz, sc-81503). […] Chemiluminescence signals were detected by ImageQuant™ LAS 4000 (GE Healthcare). […]

Ba/F3-NRAS-G12D cells = assay: Anti-proliferation assay (CellTiter Glo) on Ba/F3-NRAS-G12D; settings: Mus musculus, BaF3; 72 h treatment; average with SD (n = 3, duplicate)
Description: as §1, §2

Ba/F3-NRAS-G12V cells = assay: Anti-proliferation assay (CellTiter Glo) on Ba/F3-NRAS-G12V; settings: Mus musculus, BaF3; 72 h treatment; average with SD (n = 3, duplicate)
Description: as §1, §2

[2] = system: cleaved PARP in Ba/F3-NRAS-G12D and Ba/F3-NRAS-G12V cells; assay: Western blot, cleaved PARP in Ba/F3 cells transformed with mtRAS; settings: 1 μM, 24 h
Description: Approximately 1 × 10^6 cells per well were seeded in a 6-well cell culture plate. After cell adhesion, each compounds were treated for 2 h with indicated concentration and conducted brief washing twice by ice-cold PBS. Cells were lysed by NP40 buffer (50 mM Tris–HCl pH 7.4, 1% NP40, 2 mM EDTA, 150 mM NaCl) in the presence of protease inhibitor cocktail (Roche, #11873580001) and phosphatase inhibitor cocktail (Roche, #04906837001). Each sample was loaded with same amount of total protein and separated by SDS-PAGE gel. After transferred to nitrocellulose membrane, blocking with 5% skim milk (in TBS/T) was followed. […] Chemiluminescence signals were detected by ImageQuant™ LAS 4000 (GE Healthcare).
Figure 3 (A, B) The effects of SIJ1795 and SIJ1772 on apoptosis induction in Ba/F3 cells transformed with mtRAS (NRAS-G12D and NRAS-G12V). […] (C) Apoptotic cell population (annexin V-positive) was determined by flow cytometry analysis (n = 3). […] Statistical significance was calculated by a one-way ANOVA analysis (**p < 0.01, ***p < 0.001).

[3] = system: phospho-AKT, -MEK, -ERK in cancer cells harboring mtRAS; assay: Western blot, phospho-AKT, -MEK, -ERK in cancer cells harboring mtRAS; settings: 0.1, 1, and 10 μM for 2 h
Description: as §3

H358 (KRAS-G12C) = assay: Anti-proliferation assay on H358; settings: Homo sapiens, NCI-H358; 72 h treatment; average with SD (n = 3, duplicate)
Description: as §1, §2

HCT-116 (KRAS-G13D) = assay: Anti-proliferation assay on HCT-116; settings: Homo sapiens, HCT-116; 72 h treatment; average with SD (n = 3, duplicate)
Description: as §1, §2

| GI50 (U937 (KRAS, NRAS-wt)) | GI50 (HT-29 (KRAS-Q61L)) | GI50 (Ba/F3-NRAS-G12D cells) | GI50 (Ba/F3-NRAS-G12V cells) | GI50 (H358 (KRAS-G12C)) | GI50 (HCT-116 (KRAS-G13D)) | Structure (SMILES) | phosphorylation of 70S6K1 (downstream molecule of ACK), JNK, p38 (downstream molecule of GCK) [1] | cleaved PARP level in Ba/F3-NRAS-G12D and Ba/F3-NRAS-G12V cells [2] | signaling inhibitory activities in cancer cells with mtRAS relative to GNF-7 [3] |
| --- | --- | --- | --- | --- | --- | --- | --- | --- | --- |
| 9.59 ± 0.832 µM | 0.192 ± 0.094 µM | 0.077 ± 0.016 µM | 0.096 ± 0.009 µM | 0.125 ± 0.017 µM | 0.038 ± 0.028 µM | Cc1ccc(NC(=O)c2cccc(C(F)(F)F)c2)cc1N1Cc2cnc(Nc3cnn(C4CCN(S(C)(=O)=O)CC4)c3)nc2N(C)C1=O [SIJ1772, N-(4-Methyl-3-(1-methyl-7-((1-(1-(methylsulfonyl)piperidin-4-yl)-1H-pyrazol-4-yl)amino)-2-oxo-1,4-dihydropyrimido[4,5-d]pyrimidin-3(2H)-yl)phenyl)-3-(trifluoromethyl)benzamide] | effectively inhibited | increased cleaved PARP level | comparable to those of GNF-7 |
| 1 ± 0.126 µM | 0.154 ± 0.042 µM | 0.082 ± 0.031 µM | 0.075 ± 0.045 µM | 0.203 ± 0.012 µM | 0.033 ± 0.006 µM | CCN1CCN(c2cccc(Nc3ncc4c(n3)N(C)C(=O)N(c3cc(NC(=O)c5cccc(C(F)(F)F)c5)ccc3C)C4)c2)CC1 [SIJ1795, N-(3-(7-((3-(4-Ethylpiperazin-1-yl)phenyl)amino)-1-methyl-2-oxo-1,4-dihydropyrimido[4,5-d]pyrimidin-3(2H)-yl)-4-methylphenyl)-3-(trifluoromethyl)benzamide] | effectively inhibited | increased cleaved PARP level | comparable to those of GNF-7 |
